What was measured:
Assay type in all cases: cell-based
Conditions in all cases: Homo sapiens, compound 5 hours at 37° C., 1% DMSO, percent vehicle fit to 4 parameter curve
Aβ-40 = Aβ-40 level in conditioned media of 2B7 cells (MSD 3-PLEX ELISA)
Method: (§1) Assays were conducted to determine the ability of a Compound of Formula I to modulate […], and Aβ-38.
Human (6E10) Ab 3-PLEX elisa kits were purchased from Meso Scale Discovery Labs, 9328 Gaither Road, Gaithersburg, Md. 20877 (Catalog Number K15148E-3). Plates with capture antibodies were blocked for 1-2 hours at room temperature with 150 μL of the manufactures blocking reagent.
(§2) Cultured 2B7 cells in 96 well plate with 250 uL of media per well until confluent;
(§3) Prepared serial dilutions of compounds in DMSO at 100× the final desired concentration;
(§4) Washed wells with 2B7 cells 1× with 250 uL of media;
(§5) Diluted DMSO stocks 1:100 into media:
(§6) Added 250 μL of media containing compounds (1% DMSO) to wells with 2B7 cells for 5 hours at 37° C.
(§7) Diluted conditioned media: 1 part media with 1% DMSO and 1 part blocking buffer;
(§8) 150 μL of the 250 μL of conditioned media were used.
(§9) Standard Curve Sample Prep:
(§10) Prepared per manufacturer's protocol (see above)
(§11) Seven point standard curve samples were prepared that contained Aβ-42, Aβ-40, and Aβ-38. The highest concentration of Aβ-42 and Aβ-38 was 3,000 pg/mL and the highest concentration of Aβ-40 was 10,000 pg/mL. Subsequent serial dilutions were 1:3 and the final composition of each sample was 1 part blocking buffer and 1 part cell medium containing 1% DMSO.
(§12) Overnight Sample Incubation:
(§13) Blocked plates are washed 5× with MSD wash buffer with a plate washer
(§14) 25 uL of detection antibody and blocker G reagent in MSD blocking solution is added
(§15) 25 uL of samples (1 part conditioned media containing 1% DMSO and 1 part MSD blocking buffer) are then added.
(§16) plates are incubated overnight at 4 degrees C. or 2 hours at room temp
(§17) Wash wells 5× with MSD wash buffer
(§18) Added 150 μL 2×MSD read buffer
(§19) A-Beta peptide levels for each peptide are calculated from the standard curve using the MSD software provided with the MSD 2400 Imager. Percent vehicle values for each compound dosage were then calculated and fit to a 4 parameter curve generating IC50 values.

Aβ-42 = Aβ-42 level in conditioned media of 2B7 cells (MSD 3-PLEX ELISA)
Method: as §1
(§20) Plates with capture antibodies were blocked for 1-2 hours at room temperature with 150 μL of the manufactures blocking reagent.
as §2, §3, §4, §5, §6, §7, §8, §9, §10, §11, §12, §13, §14, §15, §16, §17, §18, §19

Aβ-38 = Aβ-38 level in conditioned media of 2B7 cells (MSD 3-PLEX ELISA)
Method: as §1, §20, §2, §3, §4, §5, §6, §7, §8, §9, §10, §11, §12, §13, §14, §15, §16, §17, §18, §19

SMILES	IC50 (Aβ-40) [nM]	IC50 (Aβ-42) [nM]	IC50 (Aβ-38) [nM]
CO[C@@H](C1C[C@@H](C)[C@H]2C(O1)[C@H](O)[C@@]1(C)C3CC[C@H]4C(C)(C)[C@@H](O[C@H]5CN(C)CCO5)CC[C@@]45CC35CC[C@]21C)C(C)(C)O (stereo partly drawn)	1000 to 10000	1000 to 10000	1000 to 10000
CC(C)[C@@H](OC(=O)N1CCC1)[C@H]1C[C@@H](C)[C@H]2[C@H](O1)[C@H](O)[C@@]1(C)[C@@H]3CC[C@H]4C(C)(C)[C@@H](O[C@H]5CN(C(=O)CN6CCC6)CCO5)CCC45C[C@@]35CC[C@]21C (stereo partly drawn)	1000 to 10000	< 1000	< 1000
CCO[C@@H]([C@H]1C[C@@H](C)[C@H]2[C@H](O1)[C@H](O)[C@@]1(C)[C@@H]3CC[C@H]4C(C)(C)[C@@H](O[C@H]5CN(C(=O)CNS(=O)(=O)C(F)(F)F)CCO5)CCC45C[C@@]35CC[C@]21C)C(C)(C)O (stereo partly drawn)	1000 to 10000	< 1000	< 1000
CCO[C@@H](C1C[C@@H](C)[C@H]2C(O1)[C@H](O)[C@@]1(C)C3CC[C@H]4C(C)(C)[C@@H](O[C@H]5CN(c6cnccn6)CCO5)CCC45C[C@@]35CC[C@]21C)C(C)(C)O (stereo partly drawn)	> 10000	< 1000	< 1000
CCO[C@@H]([C@H]1C[C@@H](C)[C@H]2[C@H](O1)[C@H](O)[C@@]1(C)[C@@H]3CC[C@H]4C(C)(C)[C@@H](O[C@H]5CN(C6CN(C(C)=O)C6)CCO5)CCC45C[C@@]35CC[C@]21C)C(C)(C)O (stereo partly drawn)	1000 to 10000	< 1000	1000 to 10000
CCO[C@@H](C1C[C@@H](C)[C@H]2C(O1)[C@H](O)[C@@]1(C)C3CC[C@H]4C(C)(C)[C@@H](O[C@H]5CN(c6ccccn6)CCO5)CCC45C[C@@]35CC[C@]21C)C(C)(C)O (stereo partly drawn)	1000 to 10000	1000 to 10000	1000 to 10000
CCO[C@@H]([C@H]1C[C@@H](C)[C@H]2[C@H](O1)[C@H](O)[C@@]1(C)[C@@H]3CC[C@H]4C(C)(C)[C@@H](O[C@H]5CN(C6CN(C(C)C)C6)CCO5)CCC45C[C@@]35CC[C@]21C)C(C)(C)OC (stereo partly drawn)	1000 to 10000	< 1000	< 1000
CCO[C@@H]([C@H]1C[C@@H](C)[C@H]2[C@H](O1)[C@H](O)[C@@]1(C)[C@@H]3CC[C@H]4C(C)(C)[C@@H](O[C@H]5CN(CC6CN(C)C6)CCO5)CCC45C[C@@]35CC[C@]21C)C(C)(C)OC (stereo partly drawn)	1000 to 10000	< 1000	< 1000
CCO[C@@H](C1C[C@@H](C)[C@H]2C(O1)[C@H](O)[C@@]1(C)C3CC[C@H]4C(C)(C)[C@@H](O[C@H]5CN(CC(C)(C)N6CCOCC6)CCO5)CCC45C[C@@]35CC[C@]21C)C(C)(C)O (stereo partly drawn)	1000 to 10000	< 1000	< 1000
CCO[C@@H]([C@H]1C[C@@H](C)[C@H]2[C@H](O1)[C@H](O)[C@@]1(C)[C@@H]3CC[C@H]4C(C)(C)[C@@H](O[C@H]5CN(C(C)(C)CN6CCOCC6)CCO5)CCC45C[C@@]35CC[C@]21C)C(C)(C)O (stereo partly drawn)	1000 to 10000	< 1000	< 1000
CCO[C@@H]([C@H]1C[C@@H](C)[C@H]2[C@H](O1)[C@H](O)[C@@]1(C)[C@@H]3CC[C@H]4C(C)(C)[C@@H](O[C@H]5CN(C(C)(C)CN6CC(F)C6)CCO5)CCC45C[C@@]35CC[C@]21C)C(C)(C)O (stereo partly drawn)	1000 to 10000	< 1000	< 1000
CCO[C@@H]([C@H]1C[C@@H](C)[C@H]2[C@H](O1)[C@H](O)[C@@]1(C)[C@@H]3CC[C@H]4C(C)(C)[C@@H](OC(=O)C5CN(C6CCC6)C5)CCC45C[C@@]35CC[C@]21C)C(C)(C)O (stereo partly drawn)	1000 to 10000	< 1000	< 1000
CCO[C@@H]([C@H]1C[C@@H](C)[C@H]2[C@H](O1)[C@H](O)[C@@]1(C)[C@@H]3CC[C@H]4C(C)(C)[C@@H](OC(=O)[C@H]5COCCN5C)CCC45C[C@@]35CC[C@]21C)C(C)(C)O (stereo partly drawn)	> 10000	< 1000	< 1000
CCO[C@@H]([C@H]1C[C@@H](C)[C@H]2[C@H](O1)[C@H](O)[C@@]1(C)[C@@H]3CC[C@H]4C(C)(C)[C@@H](OC(=O)[C@@H]5COCCN5C)CCC45C[C@@]35CC[C@]21C)C(C)(C)O (stereo partly drawn)	1000 to 10000	< 1000	< 1000
CCO[C@@H]([C@H]1C[C@@H](C)[C@H]2[C@H](O1)[C@H](O)[C@@]1(C)[C@@H]3CC[C@H]4C(C)(C)[C@@H](O[C@H]5CN(CCCO)CCO5)CCC45C[C@@]35CC[C@]21C)C(C)(C)O (stereo partly drawn)	1000 to 10000	< 1000	1000 to 10000
CCO[C@@H]([C@H]1C[C@@H](C)[C@H]2[C@H](O1)[C@H](O)[C@@]1(C)[C@@H]3CC[C@H]4C(C)(C)[C@@H](OC(=O)[C@@H]5CCCN5)CCC45C[C@@]35CC[C@]21C)C(C)(C)O (stereo partly drawn)	1000 to 10000	< 1000	< 1000
CCO[C@@H]([C@H]1C[C@@H](C)[C@H]2[C@H](O1)[C@H](O)[C@@]1(C)[C@@H]3CC[C@H]4C(C)(C)[C@@H](OC(=O)[C@@H]5CCCN5C)CCC45C[C@@]35CC[C@]21C)C(C)(C)O (stereo partly drawn)	1000 to 10000	< 1000	< 1000
CCO[C@@H]([C@H]1C[C@@H](C)[C@H]2[C@H](O1)[C@H](O)[C@@]1(C)[C@@H]3CC[C@H]4C(C)(C)[C@@H](OC(=O)C5CCN5C(=O)OC(C)(C)C)CCC45C[C@@]35CC[C@]21C)C(C)(C)O (stereo partly drawn)	1000 to 10000	< 1000	1000 to 10000
CCO[C@@H]([C@H]1C[C@@H](C)[C@H]2[C@H](O1)[C@H](O)[C@@]1(C)[C@@H]3CC[C@H]4C(C)(C)[C@@H](OC(=O)C5CCN5)CCC45C[C@@]35CC[C@]21C)C(C)(C)O (stereo partly drawn)	1000 to 10000	< 1000	< 1000
CCO[C@@H]([C@H]1C[C@@H](C)[C@H]2[C@H](O1)[C@H](O)[C@@]1(C)[C@@H]3CC[C@H]4C(C)(C)[C@@H](OC(=O)C5CCN5C)CCC45C[C@@]35CC[C@]21C)C(C)(C)O (stereo partly drawn)	> 10000	< 1000	1000 to 10000
CCO[C@@H]([C@H]1C[C@@H](C)[C@H]2[C@H](O1)[C@H](O)[C@@]1(C)[C@@H]3CC[C@H]4C(C)(C)[C@@H](O[C@H]5CN(CC6CN(C(C)=O)C6)CCO5)CCC45C[C@@]35CC[C@]21C)C(C)(C)O (stereo partly drawn)	1000 to 10000	< 1000	1000 to 10000
CCO[C@@H]([C@H]1C[C@@H](C)[C@H]2[C@H](O1)[C@H](O)[C@@]1(C)[C@@H]3CC[C@H]4C(C)(C)[C@@H](OC(=O)[C@H]5COCCN5)CCC45C[C@@]35CC[C@]21C)C(C)(C)O (stereo partly drawn)	1000 to 10000	< 1000	< 1000
CCO[C@@H]([C@H]1C[C@@H](C)[C@H]2[C@H](O1)[C@H](O)[C@@]1(C)[C@@H]3CC[C@H]4C(C)(C)[C@@H](OC(=O)[C@@H]5COCCN5)CCC45C[C@@]35CC[C@]21C)C(C)(C)O (stereo partly drawn)	1000 to 10000	< 1000	< 1000
CCO[C@@H]([C@H]1C[C@@H](C)[C@H]2[C@H](O1)[C@H](O)[C@@]1(C)[C@@H]3CC[C@H]4C(C)(C)[C@@H](OC(=O)c5cccnc5)CCC45C[C@@]35CC[C@]21C)C(C)(C)O (stereo partly drawn)	> 10000	< 1000	< 1000
CCO[C@@H]([C@H]1C[C@@H](C)[C@H]2[C@H](O1)[C@H](O)[C@@]1(C)[C@@H]3CC[C@H]4C(C)(C)[C@@H](OC(=O)[C@H]5CNCCO5)CCC45C[C@@]35CC[C@]21C)C(C)(C)O (stereo partly drawn)	1000 to 10000	< 1000	< 1000

Source: patent US20130060013A1, “Compounds useful for treating neurodegenerative disorders” (SATORI PHARMACEUTICALS, INC., priority 2011, published 2013)
